Experimental data: paper PMC6009935 (Journal of Enzyme Inhibition and Medicinal Chemistry, 2017)
pIC50, pKi: −log10 of the molar value. Where two headings read alike, the source gives them in different places.

Experiments:
[1] = molecular target: T1, cannabinoid receptors (CBR) (Rattus norvegicus, UniProt P20272); experiment: biochemical; format: binding
T1 construct: a: performed in rat whole brain membrane homogenates; from tissue; host or cells: Wistar rat whole brain membrane homogenate
Description: (§1) Tris-HCl, EGTA, NaCl, MgCl2 x 6H2O, GDP, the GTP analogue GTPγS, were purchased from Sigma-Aldrich (Budapest, Hungary). Fatty acid free bovine serum albumin (BSA) was purchased from Serva (Heidelberg, Germany). Naloxone was kindly provided by the company Endo Laboratories DuPont de Nemours (Wilmington, DE, USA). HS665 was provided by Schmidhammer’s group (University of Innsbruck, Austria). […]
(§2) purchased from Tocris Bioscience (Bristol, UK).
(§3) DMSO. All compounds were stored in 1 mM stock solution at -20 °C. The radiolabelled GTP analogue, [35S]GTPγS (specific activity: 1000 Ci/mmol) were purchased from Hartmann Analytic (Braunschweig, Germany). [3H]DAMGO (specific activity: 38.8 Ci/mmol),12 [3H]IleDelt II (specific activity: 19,6 Ci/mmol), [3H]WIN55,212-2 (specific activity: 13,1 Ci/mmol) and [3H]HS665 (specific activity: 36.62 Ci/mmol),3 were radiolabeled by the Laboratory of Chemical Biology group in BRC (Szeged, Hungary).
(§4) For membrane homogenate preparations male and female Wistar rats (250-300 g body weight) and male guinea pigs (~700 g body weight, LAL/HA/BR strain) were used. Rats were housed in the local animal house of BRC (Szeged, Hungary), while guinea pigs were housed in LAB-ÁLL Bt.
(§5) (Budapest, Hungary). All the animals were kept in a temperature controlled room (21-24 °C) under a 12:12 light and dark cycle and were provided with water and food ad libitum. All housing and experiments were conducted in accordance with the European Communities Council Directives (2010/63/EU) and the Hungarian Act for the Protection of Animals in Research (XXVIII.tv. 32.§).
(§6) The total number of animals as well as their suffering was minimized.
(§7) Rat and guinea pig brain membrane homogenate preparation for binding assays Rats and guinea pigs were decapitated and their brains were quickly removed. The brains were prepared for membrane preparation as previously described,4 and partly used for binding experiments and partly were further prepared for the [35S]GTPγS binding experiments. Briefly the brains were homogenized, centrifuged in ice-cold 50 mM Tris-HCl (pH 7.4) buffer and incubated at 37 °C for 30 min in a shaking water-bath. After incubation the centrifugation was repeated as described above and the final pellet was suspended in 50 mM Tris-HCl pH 7.4 buffer containing 0.32 M sucrose, and stored at -80 °C. For the [35S]GTPγS binding experiments the final pellet of rat […]
(§8) brain membrane homogenate was suspended in ice-cold TEM (Tris-HCl, EGTA, MgCl2) and stored at -80 °C for further use.
(§9) Radioligand competition binding experiments
(§10) Aliquots of frozen rat brain membrane homogenates were centrifuged (18 000 rpm, 20 min, 4 °C) to remove sucrose and the pellets were suspended in 50 mM Tris-HCl buffer (pH 7.4). Membranes containing 0.4-0.8 mg/mL of protein were incubated in a final volume of 1 mL in the presence of unlabeled 5, 10 and 9 in increasing concentrations (10-11-10-5 M) in the presence of the appropriate radioligand in ~1 nM concentrations at certain temperature and amount of time depending on the radioligand ([3H]DAMGO and [3H]IleDelt II: 35 °C for 45 min; [3H]HS665: 30 °C, 45 min; [3H]WIN55,212-2: 30 °C for 60 min). Experiments performed with [3H]HS665 where incubated […]
(§11) more kappa receptors than the rat brain), while the rest of the radioligands were incubated together with rat whole brain membrane homogenates. Additionally, in experiments performed with […]
(§12) increasing concentrations (10-11-10-5 M) together with 50 mM Tris/HCl, 2.5 mM EGTA, 5 mM MgCl2 and 0.5 mg/mL fatty acid free BSA (pH 7.4). The level of non-specific binding was […]
(§13) binding was determined in the absence of unlabeled compounds. The reaction was terminated by rapid filtration under vacuum (Brandel M24R Cell Harvester), and washed three times with 5 mL ice-cold 50 mM Tris-HCl or 50 mM Tris/HCl, 2.5 mM EGTA, 5 mM MgCl2, 0.5 % BSA (pH 7.4) in case of [3H]WIN55,212-2. The filtration was accomplished through Whatman GF/C ([3H]DAMGO, [3H]IleDelt II and [3H]HS665) or GF/B ([3H]WIN55,212-2) glass fibers. In case of […]

MOR = molecular target: T2, MOR (Rattus norvegicus, UniProt P33535); experiment: Radioligand competition binding with [3H]DAMGO; details: for pKi: Cheng-Prusoff; for IC50: read-out: logIC50 ± S.E.M., [3H]DAMGO (MOR) (converted)
T2 construct: a: performed in rat whole brain membrane homogenates; from tissue; host or cells: Wistar rat whole brain membrane homogenate
Description: as §1, §2, §3, §4, §5, §6, §7, §8, §9, §10, §11, §12, §13

DOR = molecular target: T3, DOR (Rattus norvegicus, UniProt P33533); experiment: Radioligand competition binding with [3H]IleDelt II
T3 construct: a: performed in rat whole brain membrane homogenates; from tissue; host or cells: Wistar rat whole brain membrane homogenate
Description: as §1, §2, §3, §4, §5, §6, §7, §8, §9, §10, §11, §12, §13

[2] = test system: hypothalamic synaptosomes; experiment: In vitro hypothalamic perfusion test (neurotransmitter release); format: cell-based, rat; details: 10 µM
Description: was evaluated with the analysis of variance followed by Dunnett’s post-hoc comparisons using GraphPad Prism 6.03 software. Statistical significance was assumed at least for P<0.05.
In vitro hypothalamic perfusion test
Hypothalamic synaptosomes were obtained from 18 male adult Sprague-Dawley rats (290-340 g), as previously described.9
Then, the synaptosome suspension was incubated at 37°C, under O2/CO2 95%/5%, pH 7.35-7.45, in Krebs-Ringer buffer (mM: NaCl 125, KCl 3, MgSO4 1.2, CaCl2 1.2, Tris-HCl 10, glucose 10, ascorbic acid 1). After the incubation period, identical aliquots of synaptosome suspension (1.24 mg protein determined by bicinchoninic acid protein assay) were layered onto 0.8 μm Millipore filters, placed into 37°C water-jacketed superfusion chambers [18 different chambers for each experiment and perfused with Krebs-Ringer buffer (0.6 mL/min)], and perfusate was collected (2 min fractions) to detect released neurotransmitters by HPLC coupled to electrochemical detection. The analytical conditions for amine identification and quantification in the perfusate fractions were selected on the basis of previous experiments performed on hypothalamus homogenate.10
The experimental protocol includes three phases: 10 min perfusion with Krebs-Ringer buffer in […]
buffer (stimulus); 8 min perfusion with Krebs-Ringer buffer for return to basal condition (post-stimulus). Perfusate was collected starting from the 8th minute of pre-stimulus. Perfusate aliquots were stored at -80°C, then lyophilized and finally suspended in 1 mL HPLC grade water for neurotransmitter quantification. Neurotransmitter release was expressed as mean percentage release recovered in the stimulus and post-stimulus, compared with initial basal conditions (pre-stimulus

[3] = rat whole brain membrane homogenates, logarithm of IC50, negative sign printed
[4] = rat whole brain membrane homogenates

T2 sequence (P33535 whole entry): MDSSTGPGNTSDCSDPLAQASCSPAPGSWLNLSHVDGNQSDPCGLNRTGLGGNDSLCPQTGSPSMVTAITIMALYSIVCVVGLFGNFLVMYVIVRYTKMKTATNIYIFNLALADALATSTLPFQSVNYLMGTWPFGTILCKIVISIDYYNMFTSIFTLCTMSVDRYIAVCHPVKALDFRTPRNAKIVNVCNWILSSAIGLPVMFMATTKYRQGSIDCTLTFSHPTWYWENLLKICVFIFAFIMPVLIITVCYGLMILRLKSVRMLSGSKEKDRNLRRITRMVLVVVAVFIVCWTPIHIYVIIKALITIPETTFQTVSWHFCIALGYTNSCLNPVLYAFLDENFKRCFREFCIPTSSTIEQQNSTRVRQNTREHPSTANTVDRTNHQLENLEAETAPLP
T1 sequence (P20272 whole entry): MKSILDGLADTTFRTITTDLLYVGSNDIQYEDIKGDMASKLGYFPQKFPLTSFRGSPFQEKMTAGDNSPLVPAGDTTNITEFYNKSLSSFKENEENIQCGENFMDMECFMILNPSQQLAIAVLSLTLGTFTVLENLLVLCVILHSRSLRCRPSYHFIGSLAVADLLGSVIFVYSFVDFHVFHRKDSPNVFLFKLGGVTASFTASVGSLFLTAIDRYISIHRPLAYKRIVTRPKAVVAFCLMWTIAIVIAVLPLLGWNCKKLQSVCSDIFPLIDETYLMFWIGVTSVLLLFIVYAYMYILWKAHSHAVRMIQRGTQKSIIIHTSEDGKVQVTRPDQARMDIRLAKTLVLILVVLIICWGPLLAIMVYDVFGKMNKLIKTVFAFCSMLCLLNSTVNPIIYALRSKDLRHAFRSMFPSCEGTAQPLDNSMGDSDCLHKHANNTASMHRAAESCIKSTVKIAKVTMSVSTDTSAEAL
T3 sequence (P33533 whole entry): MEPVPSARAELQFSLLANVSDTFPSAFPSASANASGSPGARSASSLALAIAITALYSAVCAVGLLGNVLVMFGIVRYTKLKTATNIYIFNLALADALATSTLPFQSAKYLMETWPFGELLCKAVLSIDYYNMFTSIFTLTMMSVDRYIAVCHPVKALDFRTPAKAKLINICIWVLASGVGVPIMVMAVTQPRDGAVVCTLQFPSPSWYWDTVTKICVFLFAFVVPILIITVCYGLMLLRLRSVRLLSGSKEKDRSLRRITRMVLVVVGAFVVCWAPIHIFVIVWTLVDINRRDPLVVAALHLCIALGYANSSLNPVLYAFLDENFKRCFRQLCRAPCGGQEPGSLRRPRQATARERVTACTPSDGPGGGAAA

| SMILES | logIC50 ± S.E.M., [3H]WIN55,212 (CBR) [1, 3] | MOR binding affinity in words (MOR) | logIC50 ± S.E.M., [3H]DAMGO (MOR) (MOR; [3]) | DOR binding affinity in words (DOR) | logIC50 ± S.E.M., [3H]IleDelt II (DOR) (DOR; [3]) | effect on dopamine (DA) release [2] | CBR / CB1R binding affinity in words [1] | pKi ([1]; rat whole brain membrane homogenates, Cheng-Prusoff, read-out: Ki, [3H]WIN55,212 (CBR)) | IC50 ([1]; rat whole brain membrane homogenates, logarithm of IC50, negative sign printed, read-out: logIC50 ± S.E.M., [3H]WIN55,212 (CBR) (converted)) [nM] | pKi (MOR; [4]) | IC50 (MOR; [3]) [nM] | Selectivity ratio DOR/MOR (MOR; ratio of Ki values) | Selectivity ratio KOR/MOR (MOR; ratio of Ki values) | pKi (DOR; rat whole brain membrane homogenates, Cheng-Prusoff) | IC50 (DOR; rat whole brain membrane homogenates, logarithm of IC50, negative sign printed, read-out: logIC50 ± S.E.M., [3H]IleDelt II (DOR) (converted)) [nM] | effect on norepinephrine (NE) release [2] | effect on serotonin (5-HT) release [2] | pIC50 (DOR) | pKi (DOR) |
| --- | --- | --- | --- | --- | --- | --- | --- | --- | --- | --- | --- | --- | --- | --- | --- | --- | --- | --- | --- |
| Cc1c(C(=O)NC2CCNCC2)nn(-c2ccc(Cl)cc2Cl)c1-n1cccc1 [Compound 5] | ambiguous | did not bind | ambiguous | did not bind | ambiguous | decreased | – | – | – | – | – | – | – | – | – | – | – | – | – |
| Cc1c(C(=O)NC2CCN(C(=O)[C@H](Cc3ccccc3)NC(=O)CNC(=O)[C@@H](C)NC(=O)[C@@H](N)Cc3ccc(O)cc3)CC2)nn(-c2ccc(Cl)cc2Cl)c1-n1cccc1 [Compound 9] | – | loss in affinity | – | loss in affinity | – | reduced inhibitory effect | modest affinity | 5.28 | 6030 | 7.46 | 204 | 12.88 | 4.93 | 6.35 | 1290 | significant stimulatory effect | no significant effects | – | – |
| C[C@@H](NC(=O)[C@@H](N)Cc1ccc(O)cc1)C(=O)NCC(=O)N[C@@H](Cc1ccccc1)C(N)=O [Compound 10, Tyr-D-Ala-Gly-Phe-NH2, reference compound] | ambiguous | high affinity | – | high affinity | – | inhibitory effect | did not show any affinity | – | – | 9.00 | 6.17 | – | – | – | – | significant stimulatory effect | inhibitory effect | 6.50 | 6.97 |
